According to patent publication US8334298B2, “Treatment or prevention of ovarian hyperstimulation syndrome (OHSS) using a dopamine agonist” (Ferring International Center S.A., priority 2005, dated 2012):

System: OHSS rats
Assay: Previous experiments of the group: cabergoline and vascular permeability in OHSS rats
Type: in vivo
Conditions: cabergoline 250 μg/kg/day; p<0.05
Protocol: Vehicle control group (quinagolide 0 μg/kg) (n=8). Eight rats were implanted with prolactin placebo pellets, 5 days release, between 10:00 to 11:00 on day 26, just following hCG injection (see General Procedures, above). Six hours after pellet implantation, the rats in this group were orally administered vehicle solution (1:6 alcohol in water mixture) (without quinagolide). They received another oral vehicle administration of vehicle solution 24 hours later. Experimental groups (quinagolide at 0.1, 0.3, 1, 3, 10, 25, 50 μg/kg/day to 7 test groups of rats) (n=8 in each test group). The rats in these groups were implanted with prolactin pellets, 5 days release, between 10:00 to 11:00 on day 26, just following hCG injection (see General Procedures, above). […] In this manner, the desired 0.1, 0.3, 1, 3, 10, 25, 50 μg/kg doses to be assayed were achieved. Twenty four hours later, the rats in this group were administered with another dose of the same amounts of quinagolide. Positive (cabergoline) control group (n=6). These six rats were implanted with prolactin pellets, 5 days release, between 10:00 to 11:00 .m on day 26, just following hCG injection. […] Twenty four hours later, the rats in this group were administered with another dose of the same amount of cabergoline. […] Reconstitution and dilution process to reach appropriate quinagolide doses for oral administration. […]

## C=CCN1C[C@H](C(=O)N(CCCN(C)C)C(=O)NCC)C[C@@H]2c3cccc4[nH]cc(c34)C[C@H]21 [Cabergoline, cabergoline]
  vascular permeability in OHSS rats: significant decrease in vascular permeability
